{"source": "patent US20250351832A1", "about": "“PHYTOCHEMICALS AS BIOPESTICIDES AND BIOSTIMULANTS” (KAY BEE BIO ORGANICS PVT. LTD., priority 2024, published 2025)", "key": {"Spodoptera litura [1]": {"tested_on": "Spodoptera litura", "details": "Spodoptera litura 3rd instar on cabbage plants, dose 1 ml/gm/lit. spray"}, "tomato seedlings": {"tested_on": "tomato seedlings", "test": "Response of tomato plants, greenhouse growth (Ex. 30)", "assay_type": "in vivo", "details": "tomato seedlings, dose 1 ml/gm/lit"}, "Thrips [2]": {"tested_on": "Thrips", "details": "Thrips on cotton leaves; dose 1 ml/gm/lit.; 10 insects/treatment; 48 hrs after application"}, "Alternaria alternata [3]": {"tested_on": "Alternaria alternata", "test": "Alternaria leaf spot/blight on inoculated tomato plants (Ex. 28)", "assay_type": "in vivo", "details": "tomato plants, Alternaria alternata; after 7 days; dose 1 ml/gm/lit"}, "Spodoptera litura [4]": {"tested_on": "Spodoptera litura", "test": "whole plant or invertebrate", "details": "72 h"}, "Helicoverpa armigera [5]": {"tested_on": "Helicoverpa armigera", "details": "Helicoverpa armigera 3rd instar on chickpea plants, dose 1 ml/gm/lit. spray"}, "Helicoverpa armigera [6]": {"tested_on": "Helicoverpa armigera", "details": "Helicoverpa armigera on okra fruits, dose 1 ml/gm/lit., 72 Hrs."}, "Mealy Bug [7]": {"tested_on": "Mealy Bug", "details": "mealy bug on cotton plants, green house, dose 1 ml/gm/lit. spray"}, "Thrips [8]": {"tested_on": "Thrips", "details": "thrips on cotton plants, greenhouse, dose 1 ml/gm/lit. spray"}, "Thrips [9]": {"tested_on": "Thrips", "test": "whole plant or invertebrate", "details": "in Gossypium hirsutum, 48 h"}, "Aphid [10]": {"tested_on": "Aphid", "details": "Dose 1 ml/gm/lit."}, "[11]": {"details": "Table 13, descriptive; no test described; cited from earlier work"}, "Spodoptera litura [12]": {"tested_on": "Spodoptera litura", "details": "Spodoptera litura on castor leaves; dose 1 ml/gm/lit.; 10 insects/treatment; 72 hrs after application"}, "Mealy Bug [13]": {"tested_on": "Mealy Bug", "details": "Mealy Bug on cotton leaves, dose 1 ml/gm/lit., 48 Hrs."}, "chili seedlings": {"tested_on": "chili seedlings", "test": "Response of chili plants, greenhouse growth (Ex. 31)", "assay_type": "in vivo", "details": "chili seedlings, dose 1 ml/gm/lit"}, "Alternaria alternata [14]": {"tested_on": "Alternaria alternata", "test": "In vitro poisoned food technique against fungus (Ex. 20)", "assay_type": "cell-based"}, "Mite [15]": {"tested_on": "Mite", "details": "mite on okra plants, green house, dose 1 ml/gm/lit. spray"}, "Mite [16]": {"tested_on": "Mite", "details": "Dose 1 ml/gm/lit."}, "Aphid [17]": {"tested_on": "Aphid", "details": "Aphids on cotton plants, green house; dose 1 ml/gm/lit.; 10 insects/plant, 10 plants/treatment; 48 hrs"}, "Aphid [18]": {"tested_on": "Aphid", "test": "whole plant or invertebrate", "details": "48 h"}, "[19]": {"details": "72 hrs, corrected for water control"}, "[20]": {"details": "10 insects/treatment, 4 replications"}, "[21]": {"details": "48 hrs, corrected for water control"}, "[22]": {"details": "read-out: % Corrected Mortality at 48 Hrs."}, "[23]": {"details": "read-out: % Mortality at 48 Hrs."}}, "note": "Read-outs that look alike come from different tables or passages of the source.", "data": [{"compound": "C/C=C\\c1cc(OC)c(OC)cc1OC", "note": "[β-Asarone]", "values": [{"measurement": "% Mortality at 72 Hrs.", "setting": "Spodoptera litura [1]; 72 hrs after application", "result": 55.00, "unit": "%"}, {"measurement": "% Corrected Mortality at 72 Hrs.", "setting": "Spodoptera litura [1]; [19]", "result": 52.63, "unit": "%"}, {"measurement": "Plant Height 5th Day", "setting": "tomato seedlings; 5th day after application", "result": 6.72, "unit": "cm"}, {"measurement": "Stem Girth 5th Day", "setting": "tomato seedlings; 5th day after application", "result": 1.72, "unit": "mm"}, {"measurement": "Plant Height 10th Day", "setting": "tomato seedlings; 10th day after application", "result": 7.24, "unit": "cm"}, {"measurement": "Stem Girth 10th Day", "setting": "tomato seedlings; 10th day after application", "result": 2.45, "unit": "mm"}, {"measurement": "Plant Height % Increase over pre on 10th Day", "setting": "tomato seedlings; 10th day", "result": 27.69, "unit": "%"}, {"measurement": "Stem Girth % Increase over pre on 10th Day", "setting": "tomato seedlings; 10th day", "result": 56.32, "unit": "%"}, {"measurement": "CCI 5th Day", "setting": "tomato seedlings; 5th day after application", "result": 13.45}, {"measurement": "CCI % Increase over pre on 10th Day", "setting": "tomato seedlings; 10th day", "result": 29.08, "unit": "%"}, {"measurement": "Root Length (cm) 10th Day", "setting": "tomato seedlings; 10th day", "result": 4.43, "unit": "cm"}, {"measurement": "CCI 10th Day", "setting": "tomato seedlings; 10th day after application", "result": 14.56}, {"measurement": "Root Length % Increase over control", "setting": "tomato seedlings; 10th day, vs water control", "result": 33.31, "unit": "%"}, {"measurement": "Total No. of dead insect at 48 Hrs.", "setting": "Thrips [2]", "result": 6.75}, {"measurement": "% Disease reduction over Control", "setting": "Alternaria alternata [3]", "result": 64.46, "unit": "%"}, {"measurement": "mortality at 1 mL or g/L", "setting": "Spodoptera litura [4]; read-out: % Corrected Mortality at 72 Hrs.", "result": 57.9, "unit": "%"}, {"measurement": "mortality at 1 mL or g/L", "setting": "Spodoptera litura [4]; read-out: % Mortality at 72 Hrs.", "result": 60, "unit": "%"}, {"measurement": "% Mortality at 72 Hrs.", "setting": "Helicoverpa armigera [5]; 72 hrs after application", "result": 52.50, "unit": "%"}, {"measurement": "% Corrected Mortality at 72 Hrs.", "setting": "Helicoverpa armigera [5]; [19]", "result": 52.50, "unit": "%"}, {"measurement": "Total No. of dead insect at 72 Hrs.", "setting": "Helicoverpa armigera [6]; [20]", "result": 5.00}, {"measurement": "% Mortality at 72 Hrs.", "setting": "Helicoverpa armigera [6]", "result": 50.00, "unit": "%"}, {"measurement": "% Corrected Mortality at 72 Hrs.", "setting": "Helicoverpa armigera [6]; corrected for water control", "result": 50.00, "unit": "%"}, {"measurement": "% Mortality at 48 Hrs.", "setting": "Mealy Bug [7]; 48 hrs after application", "result": 35.00, "unit": "%"}, {"measurement": "Total No. of dead insect at 48 Hrs.", "setting": "Mealy Bug [7]; 48 hrs after application", "result": 35.00}, {"measurement": "% Corrected Mortality at 48 Hrs.", "setting": "Mealy Bug [7]; [21]", "result": 27.78, "unit": "%"}, {"measurement": "% Mortality at 48 Hrs.", "setting": "Thrips [8]; 48 hrs after application", "result": 65.00, "unit": "%"}, {"measurement": "Total No. of dead insect at 48 Hrs.", "setting": "Thrips [8]; 48 hrs after application", "result": 65.00}, {"measurement": "% Corrected Mortality at 48 Hrs.", "setting": "Thrips [8]; [21]", "result": 61.11, "unit": "%"}, {"measurement": "mortality at 1 mL or g/L", "setting": "Thrips [9]; [22]", "result": 62.9, "unit": "%"}, {"measurement": "mortality at 1 mL or g/L", "setting": "Thrips [9]; [23]", "result": 67.5, "unit": "%"}, {"measurement": "Total No. of dead insect at 48 Hrs.", "setting": "Aphid [10]; 10 insects/treatment, 4 replications, cotton leaves", "result": 7.25}, {"measurement": "% Corrected Mortality at 48 Hrs.", "setting": "Aphid [10]; 48 hrs", "result": 68.57, "unit": "%"}, {"measurement": "% Mortality at 48 Hrs.", "setting": "Aphid [10]; 48 hrs", "result": 72.50, "unit": "%"}, {"measurement": "Antifungal Activity - Mode of action", "setting": "[11]", "result": "Completely inhibited"}, {"measurement": "Insecticidal Activities - Mode of action", "setting": "[11]", "result": "Reductions in oviposition"}, {"measurement": "Nematicidal Activity - Mode of action", "setting": "[11]", "result": "Act as potent nematicide"}, {"measurement": "Total No. of dead insect at 72 Hrs.", "setting": "Spodoptera litura [12]", "result": 6.00}, {"measurement": "Total No. of dead insect at 48 Hrs.", "setting": "Mealy Bug [13]; [20]", "result": 3.00}, {"measurement": "% Mortality at 48 Hrs.", "setting": "Mealy Bug [13]", "result": 30.00, "unit": "%"}, {"measurement": "% Corrected Mortality at 48 Hrs.", "setting": "Mealy Bug [13]; corrected for water control", "result": 26.32, "unit": "%"}, {"measurement": "CCI 5th Day", "setting": "chili seedlings; 5th day after application", "result": 9.58}, {"measurement": "Plant Height (cm) 5th Day", "setting": "chili seedlings; 5th day after application", "result": 5.70, "unit": "cm"}, {"measurement": "CCI % Increase over pre on 10th Day", "setting": "chili seedlings; 10th day", "result": 40.02, "unit": "%"}, {"measurement": "Plant Height % Increase over pre on 10th Day", "setting": "chili seedlings; 10th day", "result": 51.59, "unit": "%"}, {"measurement": "Root Lenght (cm) 10th Day", "setting": "chili seedlings; 10th day", "result": 3.17, "unit": "cm"}, {"measurement": "Stem Girth % Increase over pre on 10th Day", "setting": "chili seedlings; 10th day", "result": 40.46, "unit": "%"}, {"measurement": "CCI 10th Day", "setting": "chili seedlings; 10th day after application", "result": 12.49}, {"measurement": "Plant Height (cm) 10th Day", "setting": "chili seedlings; 10th day after application", "result": 7.61, "unit": "cm"}, {"measurement": "Root Lenght % Increase over control", "setting": "chili seedlings; 10th day, vs water control", "result": 16.00, "unit": "%"}, {"measurement": "inhibition of growth at 1 mL or g/L", "setting": "Alternaria alternata [14]; […]", "result": 54, "unit": "%"}, {"measurement": "Mean colony Diameter (mm)", "setting": "Alternaria alternata [14]; poisoned food technique, PDA medium, dose 1 ml/gm/lit., after seven days", "result": 40.50, "unit": "mm"}, {"measurement": "% Mortality at 48 Hrs.", "setting": "Mite [15]; 48 hrs after application", "result": 22.50, "unit": "%"}, {"measurement": "Total No. of dead insect at 48 Hrs.", "setting": "Mite [15]; 48 hrs after application", "result": 22.50}, {"measurement": "% Corrected Mortality at 48 Hrs.", "setting": "Mite [15]; [21]", "result": 18.42, "unit": "%"}, {"measurement": "Total No. of dead insect at 48 Hrs.", "setting": "Mite [16]; 10 insects/treatment, 4 replications, okra leaves", "result": 2.50}, {"measurement": "% Corrected Mortality at 48 Hrs.", "setting": "Mite [16]; 48 hrs", "result": 18.92, "unit": "%"}, {"measurement": "% Mortality at 48 Hrs.", "setting": "Mite [16]; 48 hrs", "result": 25.00, "unit": "%"}, {"measurement": "Total No. of dead insect at 48 Hrs.", "setting": "Aphid [17]", "result": 70.00}, {"measurement": "mortality at 1 mL or g/L", "setting": "Aphid [18]; [22]", "result": 64.7, "unit": "%"}, {"measurement": "mortality at 1 mL or g/L", "setting": "Aphid [18]; [23]", "result": 70, "unit": "%"}]}]}
